Reference: patent US12227494B2, “Polymorphisms of HM30181 mesylate” (ATHENEX R&D, LLC, priority 2020, dated 2025)

Assay: Estimated solubility of HM30181 mesylate Type A starting material in solvents (stepwise solvent addition)
Assay type: physicochemical
Settings: for solubility: thermodynamic from solid

In the case of `COc1cc2c(cc1OC)CN(CCc1ccc(-n3nnc(-c4cc(OC)c(OC)cc4NC(=O)c4cc(=O)c5ccccc5o4)n3)cc1)CC2.CS(=O)(=O)O` [HM30181 mesylate Type A, HM30181 mesylate], the solubility (organic solvent or mixture, solvent 1,4-Dioxane) is reported as < 1000 µg/mL, the solubility (organic solvent or mixture, solvent 2-MeTHF) is reported as < 1000 µg/mL and the solubility (organic solvent or mixture, solvent ACN) is reported as < 1000 µg/mL. For the same molecule, the solubility (organic solvent or mixture, solvent Acetone) was < 1000 µg/mL, the solubility (organic solvent or mixture, solvent CHCl3) was 5000 to 6700 µg/mL and the solubility (organic solvent or mixture, solvent Cumene) was < 1000 µg/mL. The solubility (organic solvent or mixture, solvent Cyclohexane) was < 1000 µg/mL, the solubility (organic solvent or mixture, solvent DCM) was < 1000 µg/mL and the solubility (organic solvent or mixture, solvent DMA) was 3200 to 4800 µg/mL. The solubility (organic solvent or mixture, solvent DMSO) was 22000 to 44000 µg/mL, the solubility (organic solvent or mixture, solvent EtOAc) was < 900 µg/mL and the solubility (organic solvent or mixture, solvent EtOH) was < 900 µg/mL. The solubility (organic solvent or mixture, solvent IPA) was < 1000 µg/mL, the solubility (organic solvent or mixture, solvent IPOAc) was < 1000 µg/mL and the solubility (organic solvent or mixture, solvent MEK) was < 1000 µg/mL. For the same molecule, the solubility (organic solvent or mixture, solvent MIBK) was < 1000 µg/mL, the solubility (organic solvent or mixture, solvent MTBE) was < 1000 µg/mL and the solubility (organic solvent or mixture, solvent MeOH) was 1700 to 2000 µg/mL. For the same molecule, the solubility (organic solvent or mixture, solvent NMP) was 4800 to 6300 µg/mL, the solubility (organic solvent or mixture, solvent T-BuOH) was < 1000 µg/mL and the solubility (organic solvent or mixture, solvent THF) was < 1000 µg/mL. For the same molecule, the solubility (organic solvent or mixture, solvent Toluene) was < 1000 µg/mL, the solubility (organic solvent or mixture, solvent n-Heptane) was < 1000 µg/mL and the solubility (organic solvent or mixture, solvent n-Propanol) was < 1000 µg/mL. The solubility (organic solvent or mixture, solvent n-Propyl acetate) was < 1000 µg/mL, the “Dissolved after heating to 50° C. for 2 hours?” value (“Dissolved after heating” below) (solvent 1,4-Dioxane) was “No” and the “Dissolved after heating” value (solvent 2-MeTHF) was “No”. The “Dissolved after heating” value (solvent ACN) was “Yes”, the “Dissolved after heating” value (solvent Acetone) was “No” and the “Dissolved after heating” value (solvent Cumene) was “No”. For the same molecule, the “Dissolved after heating” value (solvent Cyclohexane) was “No”, the “Dissolved after heating” value (solvent DCM) was “Yes” and the “Dissolved after heating” value (solvent EtOAc) was “No”. The “Dissolved after heating” value (solvent EtOH) was “Almost”, the “Dissolved after heating” value (solvent H2O) was “No” and the “Dissolved after heating” value (solvent IPA) was “No”. For the same molecule, the “Dissolved after heating” value (solvent IPOAc) was “No”, the “Dissolved after heating” value (solvent MEK) was “No” and the “Dissolved after heating” value (solvent MIBK) was “No”. The “Dissolved after heating” value (solvent MTBE) was “No”, the “Dissolved after heating” value (solvent T-BuOH) was “No” and the “Dissolved after heating” value (solvent THF) was “No”. The “Dissolved after heating” value (solvent Toluene) was “No”, the “Dissolved after heating” value (solvent n-Heptane) was “No” and the “Dissolved after heating” value (solvent n-Propanol) was “No”. The “Dissolved after heating” value (solvent n-Propyl acetate) was “No” and the solubility (water, solvent H2O) was < 1000 µg/mL.
